In US20260234165A1, “MACROCYCLIC COMPOUNDS, PREPARATION METHOD THEREFOR, AND USE THEREOF” (GENFLEET THERAPEUTICS (SHANGHAI) INC., priority 2004, published 2026):
Read-outs that look alike come from different tables or passages of the source.

Columns and labels:
Type in all cases: cell-based, human
[1] = tested on: p-ERK in NCI-H441 cells (KRAS G12V mutation); experiment: Cell p-ERK assay (HTRF) in NCI-H441 cells
Protocol: (§1) AsPC-1 cells were purchased from ATCC, Cat. No. CRL-1682: NCI-H441 cells were purchased from ATCC, Cat. No. HTB-174: RPMI-1640 medium was purchased from Gibco, Cat. No. I1875-093: FBS was purchased from Gibco, Cat. No. 10099-141C: penicillin/streptomycin double-antibiotic solution (PS) was purchased from Gibco, Cat. No. 15140-122: trypsin (containing EDTA) was purchased from Gibco, Cat. No. 25200-072; DMSO was purchased from VWRAMRESCO, Cat. No. 0231-500ML; 96-well cell culture plates were purchased from Corning, Cat. No. 3599: white-bottomed, opaque 96-well plates were purchased from Cisbio, Cat. No. 66PL96025; Advance ERK phospho-T202/Y204 kit was purchased from Cisbio, Cat. No. 64AERPEH; cell counter was purchased from CHEMOMETEC, model: NC-200; microplate reader was purchased from PerkinElmer, model: EnVision.
(§2) AsPC-1, a human pancreatic cancer cell strain endogenously containing a KRAS^G12D mutation, was cultured in a complete medium containing RPMI-1640+10% FBS+1% PS. NCI-H441, a human non-small cell lung cancer cell strain endogenously containing a KRAS^G12V mutation, was cultured in a complete medium containing RPMI-1640+10% FBS+1% PS.
(§3) The cells were digested with trypsin (containing EDTA), collected in their corresponding complete media, and counted. The density of the cell suspensions was adjusted with their corresponding complete media, and 10000 AsPC-1 cells or 20000 NCI-H441 cells per well were seeded into a 96-well cell culture plate, with the volume of the medium in each well being 80 μL.
(§4) The cell culture plate was incubated in an incubator at 37° C. with 5% CO2 overnight. A series of 3.16-fold gradient dilutions of a 1000- compound stock solution were prepared with DMSO, and then diluted 200-fold with the complete medium described above to give 5′ compound stock solutions. On the day after cell seeding, 20 μL of the 5× compound stock solution was added to each cell culture well. As a result, the final concentration of the compound in the cell culture well became 1×, and the DMSO content in the well was 0.1%. In addition to the compound-treated wells described above, cell-containing DMSO control wells were also set. A complete medium containing 0.5% DMSO was added at 20 μL/well. After the mixture was well mixed, the culture plate was incubated in the incubator at 37° C. with 5% CO2 for another 3 h. The medium was then removed from the culture wells, and 50 μL of cell lysis buffer (from Advance ERK phospho-T202,Y204 kit) was added to each well. The mixture was well mixed and incubated for 30 min. Then, 16 μL of the mixture was transferred to a white-bottomed, opaque 96-well assay plate, and separately, 16 μL of cell lysis buffer was added to additional wells (serving as blank wells) in the assay plate. After the transfer was completed, 4 μL of p-ERK HTRF antibody mixture (from Advance ERK phospho-T202/Y204 kit) was added to each well of the assay plate, followed by a 4-hour incubation. The HTRF signal values (RLU) were then measured using a microplate reader, and the inhibition rate of the compound against p-ERK levels was calculated as follows: IR (%)=(RLUDMSO−RLUcompound)/(RLUDMSO−RLUblank)×100%, where RLUDMSO is the average HTRF signal value from the DMSO control well samples, RLUblank is the average HTRF signal value from the blank well samples, and RLUcompound is the HTRF signal value from the compound-treated well samples. Using an XLfit software, the IR (%) values were plotted against the logarithm of the compound concentrations, and the dose-response curves were fitted using the four-parameter method to calculate the IC50 values.

[2] = tested on: p-ERK in AsPC-1 cells (KRAS G12D mutation); experiment: Cell p-ERK assay (HTRF) in AsPC-1 cells
Protocol: as §1, §2, §3, §4

NCI-H441 cells = experiment: 3D cell proliferation assay (CellTiter Glo-3D), NCI-H441; conditions: medium with 2% FBS, read-out: H441 AP IC50
Description: MIA PaCa-2 cells were purchased from ATCC, Cat. No. CRL-1420; AsPC-1 cells were purchased from ATCC, Cat. No. CRL-1682; NCI-H441 cells were purchased from ATCC, Cat. No. HTB-174: NCI-H1975 cells were purchased from ATCC. Cat. No. CRL-5908; DMEM medium was purchased from Gibco, Cat. No. 11995-065: RPMI-1040 medium was purchased from Gibco. Cat. No. H 18754093; FBS was purchased from Gibco, Cat. No. 10099-141C. penicillin, streptomycin double-antibiotic solution (PS) was purchased from Gibco, Cat. No. 15140-122; Horse serum was purchased from Gibco. Cat. No. 16050130: trypsin (containing EDTA) was purchased from Gibco, Cat. No. 25200-072; DMSO was purchased from VWRAMRESCO, Cat. No. 0231-500ML; 384-well cell culture plates were purchased from Corning, Cat. No. 3830; white-bottomed, opaque 384-well assay plates were purchased from Corning, Cat. No. 3570. CellTiter Glo-3D) kit was purchased from Promega. Cat. No. G9683; cell counter was purchased from CHEMOMETEC, model: NC-200: microplate reader was purchased from PerkinElmer, model: EnVision.
MIA PaCa-2, a human pancreatic cancer cell strain endogenously containing a KRAS^G12C mutation, was cultured in a complete medium containing DMEM+10% FBS+2.5% Horse serum+1% PS. AsPC-1, a human pancreatic cancer cell strain endogenously containing a […] mutation, was cultured in a complete medium containing RPMI-1640+10% FBS+1% PS. NCI-H441 cells, a human lung cancer cell strain endogenously containing a […] mutation, were cultured in a complete medium containing RPMI-1640+10% FBS+1% PS. NCI-H1975, a KRAS wild-type human lung cancer cell strain whose cell proliferation depends on KRAS activity, was cultured in a complete medium containing RPMI-1640+10% FBS+1% PS.
The cells were digested with trypsin (containing EDTA), collected in their respective low-serum complete media containing 2% FBS (for MIA Paca-2 cell culture: DMEM+2% FBS+0.5% Horse serum+1% PS), and counted. After the cell density was adjusted as required, 200 MIA PaCa-2 cells, 800 AsPC-1 cells, 800 NCI-H441 cells, or 400 NCI-H1975 cells per well were seeded into a 384-well cell culture plate, with the volume of the medium in each well being 45 μL. The cell culture plate was incubated in an incubator at 37° C. with 5% CO2, overnight. A series of 3.16-fold gradient dilutions of a 1000× compound stock solution were prepared with DMSO, and then diluted 100-fold with the complete medium containing 2% FBS described above to give 10- compound stock solutions. On the day after cell seeding, 5 μL of the 10- compound stock solution was added to each cell culture well. As a result, the final concentration of the compound in the cell culture well became 1×, and the DMSO content in the well was 0.1%. In addition to the compound-treated wells described above, cell-containing DMSO control wells (with 5 μL of the complete medium containing 1% DMSO added to each well) and cell-free medium control wells (containing 50 μL of the complete medium with 2% FBS) were also set. The culture plate was incubated in an incubator at 37° C. with 5% CO2 for another 5 days, and then 30 μL of CellTiter-Glo working solution was added to each well. The mixture was well mixed, incubated for 30 min, left to stand at room temperature for 30 min, and then transferred to a white-bottomed, opaque 384-well assay plate at 40 μL/well. The chemiluminescence values (RLU) were measured using a microplate reader, and the cell proliferation inhibition rate for each well was calculated: IR (%)=(RLUDMSO—RLUcompound)/(RLUDMSO−RLUblank)×100%, where RLUDMSO is the average RLU signal value from the DMSO control well samples, RLUblank is the average RLU signal value from the medium control well samples, and RLUcompound is the RLU signal value from the compound-treated well samples. […]

[3] = Homo sapiens, NCI-H441, 3 h, NCI-H441 cells, 3 h compound incubation, HTRF p-ERK T202/Y204, read-out: H441 p-ERK IC50
[4] = Homo sapiens, ASPC1, 3 h, AsPC-1 cells, 3 h compound incubation, HTRF p-ERK T202/Y204, read-out: AsPC-1 p-ERK IC50
[5] = NCI-H441 cells, 3 h compound incubation, HTRF p-ERK T202/Y204, read-out: H441 p-ERK IC50

Row | Compound | IC50 [1, 3] [nM] | IC50 [2, 4] [nM] | IC50 [1, 5] [nM] | further results
1 | CCn1c(-c2cc(C#CCN3CCC(O)(c4cccc(C)[n+]4[O-])CC3)cnc2[C@H](C)OC)c2c3cc(ccc31)-c1csc(n1)C[C@H](NC(=O)[C@H]1[C@H](C)[C@@H]1C)C(=O)N1CCC[C@H](N1)C(=O)OCC(C)(C)C2 (atropisomer, axis not shown; (Ra)) [Compound Z1055, 2-(1-(3-(5-((6^3S,4S,Z)-4-((r,2R,3S)-2,3-dimethylcyclopropane-1-carboxamido)-1^1-ethyl-10,10-dimethyl-5,7-dioxo-6^1,6^2,6^3,6^4,6^5,6^6-hexahydro-1^1H-8-oxa-2(4.2)-thiazola-1(5,3)-indola-6(1.3)-pyridazinacycloundecaphane-12-yl)-(Ra)-6-((S)-1-methoxyethyl)pyridin-3-yl)prop-2-yn-1-yl)-4-hydroxypiperidin-4-yl)-6-methylpyridine 1-oxide] |  |  |  | IC50 ([1]; Homo sapiens, NCI-H441, 3 h, read-out: H441 p-ERK IC50(nM)): 0.19 nM; IC50 ([2]; Homo sapiens, ASPC1, 3 h, read-out: AsPC-1 p-ERK IC50(nM)): 0.32 nM
2 | CCn1c(-c2cc(C#CCN3CCCOCC3)cnc2[C@H](C)OC)c2c3cc(ccc31)-c1csc(n1)C[C@H](NC(=O)[C@H](C(C)C)N(C)[S@](C)(=O)=NC)C(=O)N1CCC[C@H](N1)C(=O)OCC(C)(C)C2 (single isomer, unassigned) [Compound Z912-1] | 2.61 |  |  | IC50 (NCI-H441 cells; Homo sapiens, NCI-H441, 3D cell proliferation (CellTiter Glo-3D)): 5130 pM
3 | CCn1c(-c2cc(C#CCN3CCCOCC3)cnc2[C@H](C)OC)c2c3cc(ccc31)-c1csc(n1)C[C@H](NC(=O)[C@H](C(C)C)N(C)[S@@](C)(=O)=NC)C(=O)N1CCC[C@H](N1)C(=O)OCC(C)(C)C2 (single isomer, unassigned) [Compound Z912-2] |  |  | 3.41 | IC50 (NCI-H441 cells; 3D cell proliferation (CellTiter Glo-3D)): 8590 pM

Now from value to molecule, other results behind:

Row | IC50 [1, 3] [nM] | IC50 [2, 4] [nM] | IC50 [1, 5] [nM] | Compound | further results
4 | 0.16 | 0.27 |  | CCn1c(-c2cc(C#CCN3CCCOCC3)c[n+]([O-])c2C(C)C)c2c3cc(ccc31)-c1csc(n1)C[C@H](NC(=O)[C@H]1[C@H](C)[C@@H]1C)C(=O)N1CCC[C@H](N1)C(=O)OCC(C)(C)C2 (atropisomer, axis not shown; (Ra)) [Compound Z950, (1r,2R,3S)—N-((6^3S,4S,Z)—(Ra)-1^2-(5-(3-(1,4-oxazepan-4-yl)prop-1-yn-1-yl)-2-isopropylpyridin-1-oxide-3-yl)-1^1-ethyl-10,10-dimethyl-5,7-dioxo-6^1,6^2,6^3,6^4,6^5,6^6-hexahydro-1^1H-8-oxa-2(4,2)-thiazola-1(5,3)-indola-6(1,3)-pyridazinacycloundecaphane-4-yl)-2,3-dimethylcyclopropane-1-carboxamide] | 
5 | 1.01 | 4.15 |  | CCn1c(-c2cc(C#CCN3CCC(C#N)CC3)cnc2[C@H](C)OC)c2c3cc(ccc31)-c1csc(n1)C[C@H](Nc1nnc3cc(C)ccn13)C(=O)N1CCC[C@H](N1)C(=O)OCC(C)(C)C2 (atropisomer, axis not shown; (Ra)) [Compound Z959] | 
6 |  |  | 0.15 | CCn1c(-c2cc(C#CCN3CCS(=O)(=O)CC3)cnc2C(C)OC)c2c3cc(ccc31)-c1csc(n1)CC(NC(=O)CC1CC1)C(=O)N1CCCC(N1)C(=O)OCC(C)(C)C2 (atropisomer, axis not shown; (Ra)) [Compound Z962, 2-cyclopropyl-N-((6^3S,4S,Z)—(Ra)-1^2-(5-(3-(1,1-dioxidothiomorpholino)prop-1-yn-1-yl)-2-((S)-1-methoxyethyl)pyridin-3-yl)-1^1-ethyl-10,10-dimethyl-5,7-dioxo-6^1,6^2,6^3,6^4,6^5,6^6-hexahydro-1^1H-8-oxa-2(4,2)-thiazola-1(5,3)-indola-6(1,3)-pyridazinacycloundecaphane-4-yl)acetamide] | IC50 ([2]; AsPC-1 cells, 3 h compound incubation, HTRF p-ERK T202/Y204, read-out: AsPC-1 p-ERK IC50): 0.26 nM
